Reference: paper PMC4176160, “Characterization of three mycobacterial DinB (DNA polymerase IV) paralogs highlights DinB2 as naturally adept at ribonucleotide incorporation” (Nucleic Acids Research, 2014)
Like-named read-outs stand apart in the source and are kept apart here. One block for each molecule: values may come before it.

Molecular target: T1, DinB2 (MsmDinB2) (Mycolicibacterium smegmatis, UniProt A0QR77)
T1 construct: gene dinB; full-length 356 aa, 39 kDa, monomer; expressed in E. coli BL21(DE3) as His10Smt3 fusion, tag removed with Ulp1
T1 sequence (A0QR77 entry or part of it): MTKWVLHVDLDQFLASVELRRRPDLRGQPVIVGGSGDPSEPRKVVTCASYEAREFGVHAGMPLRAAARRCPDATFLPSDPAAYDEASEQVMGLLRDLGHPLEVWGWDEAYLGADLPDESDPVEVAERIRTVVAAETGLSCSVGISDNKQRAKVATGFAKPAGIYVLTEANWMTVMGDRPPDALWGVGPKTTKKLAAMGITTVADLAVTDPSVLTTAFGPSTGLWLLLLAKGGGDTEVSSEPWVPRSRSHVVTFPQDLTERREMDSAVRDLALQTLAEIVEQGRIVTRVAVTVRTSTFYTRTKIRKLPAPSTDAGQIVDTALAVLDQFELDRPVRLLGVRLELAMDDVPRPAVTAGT
Assay: primer extension, kobs of first nucleotide addition vs nucleotide concentration, hyperbolic fit
Format: biochemical
Conditions: 5 mM MgCl2, 10 mM Tris-HCl pH 7.5, 37 °C, 1 μM enzyme, read-out: apparent Kd

[1] = 50 nM 13-mer/18-mer DNA primer-template with dT as first template base
[2] = 50 nM 13-mer/18-mer DNA primer-template with dG as first template base
[3] = 50 nM 13-mer/18-mer DNA primer-template with dC as first template base
[4] = 50 nM 13-mer/18-mer DNA primer-template with dA as first template base

Kd [1]: 66 µM
SMILES: Nc1ncnc2c1ncn2[C@@H]1O[C@H](COP(=O)(O)OP(=O)(O)OP(=O)(O)O)[C@@H](O)[C@H]1O [ATP]

Kd [2]: 44 µM
SMILES: Nc1ccn([C@@H]2O[C@H](COP(=O)(O)OP(=O)(O)OP(=O)(O)O)[C@@H](O)[C@H]2O)c(=O)n1 [CTP]

Kd [3]: 22 µM
SMILES: Nc1nc2c(ncn2[C@@H]2O[C@H](COP(=O)(O)OP(=O)(O)OP(=O)(O)O)[C@@H](O)[C@H]2O)c(=O)[nH]1 [GTP]

Kd [4]: 411 µM
SMILES: O=c1ccn([C@@H]2O[C@H](COP(=O)(O)OP(=O)(O)OP(=O)(O)O)[C@@H](O)[C@H]2O)c(=O)[nH]1 [UTP]

Kd [1]: 0.85 µM
SMILES: Nc1ncnc2c1ncn2[C@H]1C[C@H](O)[C@@H](COP(=O)(O)OP(=O)(O)OP(=O)(O)O)O1 [dATP]

Kd [2]: 1.5 µM
SMILES: Nc1ccn([C@H]2C[C@H](O)[C@@H](COP(=O)(O)OP(=O)(O)OP(=O)(O)O)O2)c(=O)n1 [dCTP]

Kd [3]: 0.87 µM
SMILES: Nc1nc2c(ncn2[C@H]2C[C@H](O)[C@@H](COP(=O)(O)OP(=O)(O)OP(=O)(O)O)O2)c(=O)[nH]1 [dGTP]

Kd [4]: 8 µM
SMILES: Cc1cn([C@H]2C[C@H](O)[C@@H](COP(=O)(O)OP(=O)(O)OP(=O)(O)O)O2)c(=O)[nH]c1=O [dTTP]
